{
  "source": "patent US20140350454A1",
  "about": "“IRRADIATION APPARATUS” (Photocure ASA, priority 2011, published 2014)",
  "origin": "cited, not measured here",
  "key": {"VIN [1]": {"system": "VIN", "details": "bioadhesive patch 38 mg/cm^2 5-ALA in dry form, in situ 4-6 hours; 630 nm non-laser lamp, 20-30 min, 100 J/cm^2; repeated PDT"}, "VIN [2]": {"system": "VIN", "details": "VIN patients, topical 5-ALA 20% w/w in Unguentum Merck, 4 hours incubation, 630 nm non-laser light"}, "lesions of VIN 1-3": {"system": "lesions of VIN 1-3", "details": "25 patients, 111 lesions of VIN 1-3; 10 ml 5-ALA solution 20% w/w in saline, 4-5 hours under occlusion; 635 nm laser, 100 J/cm^2, 150 mW/cm^2; repeated PDT"}},
  "note": "Like-named read-outs stand apart in the source and are kept apart here.",
  "data": [
    {"smiles": "NCC(=O)CCC(=O)O", "note": "[5-ALA, 5-aminolevulinic acid]", "values": [
      {"measurement": "clearance rate", "setting": "VIN [1]", "value": 52, "unit": "%"},
      {"measurement": "response rate", "setting": "VIN [2]; light dose 50 J/cm^2", "value": "unacceptably low"},
      {"measurement": "clearance rate", "setting": "VIN [2]; light dose 100 J/cm^2", "value": "40-60%"},
      {"measurement": "complete response (of the patients)", "setting": "lesions of VIN 1-3", "value": 52, "unit": "%"}
    ]}
  ]
}
